Test results: PMC5048296, “Sex pheromone recognition and characterization of three pheromone-binding proteins in the legume pod borer, Maruca vitrata Fabricius (Lepidoptera: Crambidae)” (Scientific Reports, 2016)
pIC50, pKd, pKi: −log10 of the molar value. In brackets after ≈: the same amount, converted by molar mass. Like-named read-outs stand apart in the source and are kept apart here.

How the values were obtained:
MvitPBP1 = MvitPBP1 (Maruca vitrata, UniProt A0A0K0K7G1); experiment: Fluorescence competitive binding assay with 1-NPN probe, recombinant MvitPBP1
Sequence of MvitPBP1 (A0A0K0K7G1 entry or part of it): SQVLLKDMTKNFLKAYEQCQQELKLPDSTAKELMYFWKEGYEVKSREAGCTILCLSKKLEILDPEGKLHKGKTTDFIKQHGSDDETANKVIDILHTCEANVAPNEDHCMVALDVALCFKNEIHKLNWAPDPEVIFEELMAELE
Experimental: (§1) Fluorescence binding activity was determined according to the method of Sun et al.[33]. Emission fluorescence spectra were recorded on a Hitachi F-4500 at 25 °C in a right angle configuration, with a 1 cm light path quartz cuvette and 5 nm slits for both excitation and emission. The protein was dissolved in 20 mM Tris-HCl buffer (pH 7.4) and ligands were added as 1 mM methanol solutions. To measure the affinity of the fluorescent ligand 1-NPN to recombinant target proteins, a 2 μM protein solution in 20 mM Tris-HCl (pH 7.4) was titrated with aliquots of […] ligand in methanol to final concentrations of 2–16 μM. After each PBP or ligand was added into the reaction buffer, the mixture solution was incubated for 2 min at room temperature. The probe was excited at 337 nm and emission spectra were recorded between 380 and 450 nm. The affinities of the other ligands were measured in competitive binding assays. A solution of the protein and 1-NPN at a concentration of 2 μM was titrated with 1 mM methanol solutions of each competitor over concentration ranges of 2–24 μM, depending on the ligand (the solubilities are (EPA estimates): E10E12-16:Ald, 0.5 uM; E10-16:Ald, 0.3 uM; E10E12-16:OH, 0.17 uM; and E10-16:OH, 0.97 uM in ChemSpider). The dissociation constant for 1-NPN and the stoichiometry of binding were obtained by processing the data using Prism software. Dissociation constants of the competitors were calculated from the corresponding IC50 values (concentrations of ligands halving the initial fluorescence value of 1-NPN), using the equation: Ki = [IC50]/1 + [1-NPN]/K1-NPN, where [1-NPN] is the free concentration of 1-NPN and K1-NPN is the dissociation constant of the coplex protein/1-NPN.

MvitPBP2 = MvitPBP2 (Maruca vitrata, UniProt A0A1D6YJA8); experiment: Fluorescence competitive binding assay with 1-NPN probe, recombinant MvitPBP2
Sequence of MvitPBP2 (A0A1D6YJA8 entry or part of it): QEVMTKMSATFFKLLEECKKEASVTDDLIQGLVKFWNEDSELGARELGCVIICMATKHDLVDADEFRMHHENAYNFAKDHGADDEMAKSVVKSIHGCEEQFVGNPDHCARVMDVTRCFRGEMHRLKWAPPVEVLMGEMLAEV
Experimental: as §1

[1] = system: MvitPBP3 (Maruca vitrata); experiment: Fluorescence competitive binding assay with 1-NPN probe, recombinant MvitPBP3
Sequence of MvitPBP3 (Maruca vitrata) (A0A1D6YJA8 entry or part of it): as above
Experimental: as §1, with “A solution of the protein and 1-NPN at a concentration of 2 μM was titrated with 1 mM methanol solutions of each competitor over concentration ranges of 2–24 μM, depending on the ligand (the solubilities are (EPA estimates): E10E12-16:Ald, 0.5 uM; E10-16:Ald, 0.3 uM; E10E12-16:OH, 0.17 uM; and E10-16:OH, 0.97 uM in ChemSpider). The dissociation constant for 1-NPN and the stoichiometry of binding were obtained by processing the data using Prism software.” left out

MvitGOBP2 = system: MvitGOBP2; design: method as in PMID 26517714; settings: read-out: Ligand concentration at which fluorescence intensity of the MvitGOBP2/1-NPN complex decreased to approximately 50%; cited from earlier work
[2] = design: method as in ChemSpider; settings: ref ChemSpider; cited from earlier work
[3] = MvitPBP1, 2 μM protein and 1-NPN, 20 mM Tris-HCl pH 7.4, read-out: IC50 (ligand concentration displacing 50% of the fluorescence intensity of the MvitPBPs/1-NPN complex)
[4] = MvitPBP1, calculated from IC50, read-out: Ki (dissociation constant)
[5] = MvitPBP2; calculated from IC50; read-out: Ki (dissociation constant)
[6] = MvitPBP2; 2 μM protein and 1-NPN, 20 mM Tris-HCl pH 7.4; read-out: IC50 (ligand concentration displacing 50% of the fluorescence intensity of the MvitPBPs/1-NPN complex)

Row | Structure (SMILES) | pIC50 (MvitPBP1; [3]) | pKi (MvitPBP1; [4]) | pKi (MvitPBP2; [5]) | pIC50 (MvitPBP2; [6]) | Solubility (EPA estimates) [2] [µM] | also measured
1 | CC(=O)c1ccc(C(C)=O)cc1 [1,4-diacetyl benzene] | – | – | – | – | – | pIC50 (MvitPBP1): 4.71; pKi (MvitPBP1): 4.76
2 | c1ccc(Nc2cccc3ccccc23)cc1 [1-NPN, N-phenyl-1-naphthylamine, reference compound] | – | – | – | – | – | pKd (MvitPBP2; read-out: Dissociation constant of the MvitPBP2/1-NPN complex; calculated by Scatchard plots): 4.93; pKd (MvitPBP1): 4.89
3 | Oc1cccc2[nH]ccc12 [1H-indol-4-ol] | 4.65 | 4.71 | – | – | – | –
4 | CC(C=O)Cc1ccccc1 (stereo not shown) [2-methyl-3-phenylpropanal] | – | – | 4.74 | – | – | pIC50 (MvitPBP2; read-out: IC50 (ligand concentration displacing 50% of the fluorescence intensity of the MvitPBPs/1-NPN complex); MvitPBP2; 2 μM protein and 1-NPN, 20 mM Tris-HCl pH 7.4): 4.68; Ligand binding capacity (in words) [1]: bonded strongly; pIC50 (MvitGOBP2): 5.42
5 | CCCCCCCCOC(=O)CCC [Butanoic acid octyl ester] | – | – | – | – | – | pIC50 (MvitGOBP2): 5.07
6 | CCCCC/C=C/CCCCCCCCC=O [E10-16: Ald, (E)-10-Hexadecenal] | 5.13 | 5.19 | 5.32 | 5.26 | 0.3 (≈ 0.0715 µg/mL) | –
7 | CCCCC/C=C/CCCCCCCCCO [E10-16: OH, (E)-10-Hexadecen-1-ol] | 5.12 | 5.17 | 5.23 | 5.17 | 0.97 (≈ 0.233 µg/mL) | –
8 | CCC/C=C/C=C/CCCCCCCCC=O [E10E12-16: Ald, (E,E)-10,12-Hexadecadienal] | 5.25 | 5.30 | 5.29 | 5.23 | 0.5 (≈ 0.118 µg/mL) | –
9 | CCC/C=C/C=C/CCCCCCCCCO [E10E12-16: OH, (E,E)-10,12-Hexadecadien-1-ol] | 5.05 | 5.11 | 5.29 | 5.23 | 0.17 (≈ 0.0405 µg/mL) | –
